Read-outs that look alike come from different tables or passages of the source.
Assay: Solvent vapor pressure at 20° C.
Source text: The solvents used to formulate these compositions, along with a few select physical properties of each solvent, are summarized in Table 2, below.

Solvent Vapor Pressure at 20° C.	Compound	Solvent Vapor Pressure at 20° C. (neat solvent, 20° C.)
0.098 torr	CCC(C)OC(=O)CC(C)O (stereo not shown) [2-butyl 3-hydroxybutyrate]	–
0.076 torr	OCc1ccccc1 [Benzyl Alcohol]	–
–	CCCCOCCOCCO [Diethylene Glycol Monobutyl Ether]	0.02 torr
0.12 torr	CCOCCOCCO [Diethylene Glycol Monoethyl Ether]	–
–	CCCCOCCO [Ethylene glycol monobutyl ether]	0.60 torr
–	C=C(C)[C@H]1CC=C(C)CC1 [d-limonene]	1.5 torr
0.08 torr	CC(C)COC(=O)CC(C)O (stereo not shown) [i-butyl 3-hydroxybutyrate]	–
0.17 torr	CC(O)CC(=O)OC(C)C (stereo not shown) [i-propyl 3-hydroxybutyrate, isopropyl 3-hydroxybutyrate]	–
0.06 torr	CCCCOC(=O)CC(C)O (stereo not shown) [n-butyl 3-hydroxybutyrate]	–
–	dibasic ester	0.20 torr

Source: patent US9249378B2, “Aqueous cleaning compositions having enhanced properties” (Eastman Chemical Company, priority 2013, dated 2016)
